We go through 17 molecules from ChEMBL document CHEMBL5050844 (2019).

Test [1] concerns the target T1, E3 ubiquitin-protein ligase CBL-B (Homo sapiens, UniProt Q13191). Kind of test: Inhibition of N-terminal Avi-tagged human CBL-B (36 to 427 residues) incubated with 60 nM Src kinase for 1.5 hrs followed by incubation with fluorescently labeled UbcH5B-Ub for 1 hr and measured by TR-FRET assay. In kind it is single protein.
In test [2] the target is T1, E3 ubiquitin-protein ligase CBL-B. Kind of test: Binding affinity towards N-terminal biotinylated Avi-tagged human CBL-B (36 to 427 residues) measured by surface plasmon resonance assay.
Test [3] can be described thus: Induction of anti-CD3/CD28 antibodies-stimulated human T cell activation at 4 uM assessed fold increase in IL-2 secretion measured by ELISA assay. The format is functional, T cell line. Background: In an ELISA, binding on a coated surface is turned into a signal by an enzyme label.
The nature of test [4]: Induction of anti-CD3/CD28 antibodies-stimulated human T cell activation at 1 uM assessed fold increase in IL-2 secretion measured by ELISA assay. The format is functional, T cell line.
Test [5] is described as follows: Induction of anti-CD3/CD28 antibodies-stimulated human T cell activation at 0.3 uM assessed fold increase in IL-2 secretion measured by ELISA assay. In kind it is functional, T cell line.
Test [6] in a line: Induction of anti-CD3 antibodies-stimulated human T cell activation at 8 uM assessed fold increase in IL-2 secretion measured by ELISA assay. Also: reference of the scale not given here. In kind it is functional, T cell line.
A short description of test [7]: Induction of anti-CD3 antibodies-stimulated human T cell activation at 1 uM assessed fold increase in IL-2 secretion measured by ELISA assay. Also: reference of the scale not given here. The format is functional, T cell line.
Test [8] can be described thus: Induction of anti-CD3/CD28 antibodies-stimulated human T cell activation at 4 uM assessed fold increase in CD25 expression measured by ELISA assay. The format is functional, T cell line.
Test [9] can be described thus: Induction of anti-CD3/CD28 antibodies-stimulated human T cell activation at 1 uM assessed fold increase in CD25 expression measured by ELISA assay. The format is functional, T cell line.
The nature of test [10]: Induction of anti-CD3/CD28 antibodies-stimulated human T cell activation at 0.3 uM assessed fold increase in CD25 expression measured by ELISA assay. The format is functional, T cell line.
The nature of test [11]: Induction of anti-CD3 antibodies-stimulated human T cell activation at 8 uM assessed fold increase in CD25 expression measured by ELISA assay. Also: reference of the scale not given here. The format is functional, T cell line.
Test [12] in a line: Induction of anti-CD3 antibodies-stimulated human T cell activation at 1 uM assessed fold increase in CD25 expression measured by ELISA assay. Also: reference of the scale not given here. In kind it is functional, T cell line.

T1 sequence (Q13191 whole entry, the tested form may be a part): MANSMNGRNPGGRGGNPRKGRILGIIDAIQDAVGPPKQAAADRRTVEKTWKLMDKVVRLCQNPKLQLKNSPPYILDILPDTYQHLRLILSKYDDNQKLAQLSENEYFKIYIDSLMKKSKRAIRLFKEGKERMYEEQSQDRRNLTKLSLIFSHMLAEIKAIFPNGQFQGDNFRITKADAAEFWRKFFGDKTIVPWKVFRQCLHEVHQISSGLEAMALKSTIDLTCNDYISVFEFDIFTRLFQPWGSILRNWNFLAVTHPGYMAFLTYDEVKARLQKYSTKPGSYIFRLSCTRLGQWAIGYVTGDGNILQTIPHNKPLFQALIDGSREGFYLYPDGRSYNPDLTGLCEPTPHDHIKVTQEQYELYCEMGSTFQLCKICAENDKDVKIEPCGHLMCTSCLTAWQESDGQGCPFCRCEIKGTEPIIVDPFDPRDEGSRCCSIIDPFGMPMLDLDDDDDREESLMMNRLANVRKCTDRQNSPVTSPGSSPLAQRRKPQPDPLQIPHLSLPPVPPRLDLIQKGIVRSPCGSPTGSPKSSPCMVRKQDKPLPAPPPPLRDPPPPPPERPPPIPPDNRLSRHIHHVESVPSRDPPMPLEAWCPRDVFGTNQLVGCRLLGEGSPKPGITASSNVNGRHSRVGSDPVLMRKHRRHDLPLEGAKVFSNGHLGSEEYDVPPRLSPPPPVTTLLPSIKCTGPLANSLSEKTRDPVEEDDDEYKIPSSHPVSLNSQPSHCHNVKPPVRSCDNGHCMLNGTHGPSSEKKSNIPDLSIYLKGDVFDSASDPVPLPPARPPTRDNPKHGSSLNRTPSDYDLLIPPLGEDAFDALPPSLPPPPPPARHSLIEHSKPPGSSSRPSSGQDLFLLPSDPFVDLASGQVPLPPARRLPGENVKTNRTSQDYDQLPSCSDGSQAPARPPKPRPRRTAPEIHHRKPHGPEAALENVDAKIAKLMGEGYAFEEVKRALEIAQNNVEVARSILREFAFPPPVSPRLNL

By IC50 is commonly meant the midpoint of a concentration-inhibition curve. Low readings indicate inhibition by little substance, high ones a need for much substance. As a reminder, the Kd is a measure of binding affinity in units of concentration. A high value points to weaker binding. `CCNc1cc([C@H](C)Cc2nncn2C)cc(N2Cc3c(cccc3C(F)(F)F)C2=O)n1` came in with an IC50 in test [1] of less than 100 nM. Further, in test [2], the Kd was less than 100 nM. In addition, the “fold change (FC)” value is listed as “>=7.5” in test [3]; “>=7.5” in test [4]; 2.51 in test [5]; “>=0.201” in [6]; “>=0.201” in test [7]; 1.51 in test [8]. Further, the “fold change (FC)” value is 1.51 in test [9], 1.31 in test [10], “>=1.001” in test [11] and “>=1.001” in [12].
Molecule `C[C@H](Cc1nncn1C)c1cccc(N2Cc3c(cc(CO)cc3C(F)(F)F)C2=O)c1` yielded a half-maximal inhibitory concentration (IC50) in test [1] of less than 100 nM. In addition, in test [2], the equilibrium dissociation constant (Kd) was less than 100 nM. The “fold change (FC)” value in test [3] is listed as “>=7.5”; in test [4] it was 5; in test [5], 2.51; in test [6], “>=0.201”; in [7] it was 0.151; in test [8], 1.31. Moreover, the “fold change (FC)” value in test [9] is recorded as 1.01; in [10] it was 1.01; in test [11], “>=1.001”; in test [12], “>=1.001”.
Molecule `CC1C=NN=C1C[C@@H](C)c1cccc(N2Cc3c(cc(C(=O)N4C[C@@H](O)C[C@H]4C)cc3C(F)(F)F)C2=O)c1` (some centres not stated) gave a half-maximal inhibitory concentration (IC50) in test [1] of less than 100 nM. This molecule also came in with a Kd in test [2] of less than 100 nM. Also, the “fold change (FC)” value in test [3] is reported as “>=7.5”; in test [4] it was 2.51; in test [5], 1.01; in test [6] it was “>=0.201”; in test [7], 0.151; in test [8] it was 1.31. The “fold change (FC)” value in test [9] is 1.01; in test [10], 1.01; in test [11] it was “>=1.001”; in test [12], “>=1.001”.
The molecule `C[C@H](Cc1nncn1C)c1cccc(N2Cc3c(cc(CN4C[C@@H](F)[C@@H](O)C4)cc3C(F)(F)F)C2=O)c1` returned an IC50 in [1] of less than 100 nM. In addition, the Kd in test [2] was less than 100 nM. Besides, the “fold change (FC)” value in test [3] was “>=7.5”; in [4], 5; in test [5], 2.51; in test [6], “>=0.201”; in test [7], 0.151; in test [8], 1.31. Further, the “fold change (FC)” value in [9] is on record as 1.31; in test [10], 1.01; in test [11], “>=1.001”; in [12], “>=1.001”.
For the molecule `Cc1cc(C(=O)Nc2cccc([C@@](C)(F)C(F)(F)c3nncn3C)c2)nc(C2CC2)n1`, the Kd in [2] is less than 100 nM. Further, the “fold change (FC)” value is “>=7.5” in test [3]; 2.51 in test [4]; 1.01 in test [5]; “>=0.201” in test [6]; 0.101 in [7]; 1.31 in test [8]. Moreover, the “fold change (FC)” value is 1.31 in [9], 1.01 in test [10], “>=1.001” in [11] and 0.801 in test [12].
In the case of `C[C@H](Cc1nncn1C)c1cccc(NC(=O)c2cc(C(=O)N3CC(O)C(F)(F)C3)ccn2)c1` (some centres not stated), the Kd in test [2] is greater than 10000 nM. Also, the “fold change (FC)” value in [3] is given as 2.51; in test [4], “<=1”; in test [5], “<=1”; in test [6] it was “>=0.201”; in [7] it was “>=0.201”; in [8], 1.31. The “fold change (FC)” value in [9] was “<=1”; in test [10], “<=1”; in test [11] it was 0.801; in [12], 0.601.
The molecule `C[C@H](Cc1nncn1C)c1cccc(N2Cc3c(cc(CN4CC[C@H](O)C4)cc3C(F)(F)F)C2=O)c1` yielded a concentration for half-maximal inhibition (IC50) in test [1] of less than 100 nM. This molecule also showed a Kd in test [2] of less than 100 nM.
`CCn1cnnc1C[C@H](C)c1cccc(NC(=O)c2cc(S(C)(=O)=O)cc(C3CC3)n2)c1` had a half-maximal inhibitory concentration (IC50) in test [1] of no less than 3000 nM. Moreover, the Kd in test [2] is no less than 3000 nM.
Regarding `Cn1cnnc1CC1(c2cccc(N3Cc4c(cc(CN5CC[C@H](F)C5)cc4C4CC4)C3=O)c2)COC1`, the IC50 in test [1] is less than 100 nM. Further, in [2], the Kd was less than 100 nM. In addition, the “fold change (FC)” value was “>=7.5” in test [4]; “>=7.5” in [5]; 0.151 in [7]; 1.31 in test [9]; 1.31 in test [10]; “>=1.001” in test [12].
In the case of `Cn1cnnc1C(F)(F)[C@](C)(F)c1cccc(N2Cc3c(cc(CN4CC(F)C4)cc3C(F)(F)F)C2=O)c1`, the Kd in [2] is less than 100 nM. In addition, the “fold change (FC)” value is given as “>=7.5” in test [3]; 5 in test [4]; 1.01 in test [5]; “>=0.201” in test [6]; 0.101 in test [7]; 1.31 in [8]. Further, the “fold change (FC)” value in test [9] is reported as 1.01; in test [10], 1.01; in test [11], “>=1.001”; in test [12] it was 0.801.
For the molecule `Cn1cnnc1CC1(c2cccc(NC(=O)c3cc(Cn4ccnn4)nc(C4CC4)n3)c2)COC1`, the IC50 in test [1] was less than 100 nM. This molecule also registered a Kd in test [2] of less than 100 nM. The “fold change (FC)” value in test [4] turned out to be 2.51; in test [5], 1.01; in [7], 0.101; in [9], 1.31; in test [10], 1.01; in [12] it was 0.801.
`C[C@H](c1cc2c(c(C(F)(F)F)c1)CN(c1cccc(C3([C@@H](F)c4nncn4C)COC3)c1)C2=O)N1CCC2(CC2)C1`: the IC50 in test [1] was less than 100 nM. For the same molecule, the Kd in [2] was less than 100 nM. For the same molecule, the “fold change (FC)” value is on record as “>=7.5” in test [4]; “>=7.5” in test [5]; “>=0.201” in test [7]; “>=1.76” in test [9]; “>=1.76” in [10]; “>=1.001” in [12].
In test [1], `CC1=CC(C(=O)Nc2cccc([C@H](C)Sc3nncn3C)c2)=NC(=O)C1` gave an IC50 of no less than 3000 nM. Further, in test [2], the Kd is greater than 10000 nM.
Regarding `C[C@@H](Cc1nncn1C)c1ccnc(N2Cc3c(cccc3C(F)(F)F)C2=O)c1`, the Kd in test [2] is greater than 10000 nM.
In the case of `C[C@H](Cc1nnco1)c1cccc(N2Cc3c(cccc3C(F)(F)F)C2=O)c1`, the Kd in test [2] was greater than 10000 nM.
On the same count and under the same terms, to `C[C@H](Sc1nncn1C)c1cccc(NC(=O)c2cc(C(=O)N3CCC[C@H](O)C3)ccn2)c1` belongs greater than 10000 nM.
Molecule `C[C@H](c1cc2c(c(C(F)(F)F)c1)CN(c1cccc(C3(C(F)(F)c4nncn4C)COC3)c1)C2=O)N1CC[C@H](F)C1` displayed a 50% inhibitory concentration (IC50) in test [1] of less than 100 nM. This molecule also had a Kd in [2] of less than 100 nM. For the same molecule, the “fold change (FC)” value in test [4] is reported as “>=7.5”; in [5] it was “>=7.5”; in test [7] it was “>=0.201”; in test [9], “>=1.76”; in [10], “>=1.76”; in test [12], “>=1.001”.
